From patent publication US6048529A, “PVA or PEG conjugates of peptides for epitope-specific immunosuppression” (priority 1995, dated 2000)
Entries after “also recorded” stand apart in the source; their conditions may differ. Where a SMILES comes first, the peptide text is derived from it. Bridges are numbered along the chain shown (N, C = ends). Where no end group is shown, it is not given here.

How the values were obtained:
[1] = test system: whole Torpedo AChR; assay: Radioimmunoassay of anti-AChR antisera: antibody binding to whole AChR; type: in vivo, C57/BL6 mice; conditions: anti-AChR antisera of pretreated mice, versus control groups
Procedure: (§1) Six weeks old C57/BL6 mice were purchased from Charles River Breeding Laboratories (Wilmington, Mass.). Preimmune sera were obtained from the mice for use as controls in subsequent antibody binding assays. After 2-weeks rest, the mice were divided into three groups which received, at eleven, seven and three days before immunization with AChR, an intraperitoneal injection (5 μg in 25 μl of PBS) of either the mPEG-(α125-148) conjugate (Group 1), mPEG-nonsense peptide conjugate (Group 2) or unaltered free peptide α125-148 (Group 3) (FIG. 5). Then, on day 0, the mice were immunized subcutaneously in one hind footpad and intramuscularly in the same side shoulder with 20 μg of Torpedo AChR in 100 μl emulsion containing equal volumes of complete Freund's adjuvant and PBS. Thirty days later, the mice were immunized with a similar dose of the receptor in the opposite footpad and shoulder. On the 37th day, test bleeds were obtained from the mice for determination of the antibody titers. Electrophysiological studies were performed on the 38th and 39th days. […]
(§2) One mg of the synthetic peptide was dissolved in 50 μl dimethylformamide and then diluted with PBS to 25 μg/ml. […] The plates were incubated for 3 hours at room temperature, after which they were washed and the wells were cut out and counted for bound radioactivity. […]

[2] = test system: peptide α45-60; assay: Radioimmunoassay of anti-AChR antisera: antibody binding to peptide α45-60; type: in vivo, C57/BL6 mice; conditions: anti-AChR antisera of pretreated mice, versus control groups
Procedure: as §1, §2

[3] = test system: peptide α182-198; assay: Radioimmunoassay of anti-AChR antisera: antibody binding to peptide α182-198; type: in vivo, C57/BL6 mice; conditions: anti-AChR antisera of pretreated mice, versus control groups
Procedure: as §1, §2

[4] = test system: peptide α125-148; assay: Radioimmunoassay of anti-AChR antisera: antibody binding to peptide α125-148; type: in vivo, C57/BL6 mice; conditions: for binding to peptide α125-148 of antibodies in pooled antisera at serial dilutions (in words): pooled antisera of each group, compared with the other groups
Procedure: Six weeks old C57/BL6 mice were purchased from Charles River Breeding Laboratories (Wilmington, Mass.). Preimmune sera were obtained from the mice for use as controls in subsequent antibody binding assays. After 2-weeks rest, the mice were divided into three groups which received, at eleven, seven and three days before immunization with AChR, an intraperitoneal injection (5 μg in 25 μl of PBS) of either the mPEG-(α125-148) conjugate (Group 1), mPEG-nonsense peptide conjugate (Group 2) or unaltered free peptide α125-148 (Group 3) (FIG. 5). Then, on day 0, the mice were immunized subcutaneously in one hind footpad and intramuscularly in the same side shoulder with 20 μg of Torpedo AChR in 100 μl emulsion containing equal volumes of complete Freund's adjuvant and PBS. Thirty days later, the mice were immunized with a similar dose of the receptor in the opposite footpad and shoulder. On the 37th day, test bleeds were obtained from the mice for determination of the antibody titers. Electrophysiological studies were performed on the 38th and 39th days. Finally, the mice were sacrificed on the 40th day and lymph node cells were obtained for
One mg of the synthetic peptide was dissolved in 50 μl dimethylformamide and then diluted with PBS to 25 μg/ml. A solution of Torpedo AChR in PBS was prepared to contain 2.5 μg/ml. Aliquots (50 μl/well) of the peptide or AChR solutions were added to a 96-well microtiter plate (Falcon Micro Test III flexible assay plate, Becton Dickinson, Oxcard, Calif.) and the plates were incubated at room temperature overnight. After washing 3 times with PBS, the plates were blocked with 0.25% bovine serum albumin (BSA) in PBS (50 μl/well) at 37° C. for 90 minutes. The plates were washed again 5 times with PBS and to each well was added 50 μl of the serum from AChR-immunized mice, pre-diluted with PBS containing 0.10% BSA, and the plates were covered and allowed to stand at room temperature overnight. After 5 washes with PBS, 50 μl of rabbit IgG antibodies (2.5 μg/ml) against mouse IgG and IgM (Accurate Chemical Scientific Corporation, Westbury, N.Y.) was added to each well and the plates were incubated at 37° C. for 3 hours. The plates were then washed 5 times with PBS and ^125 I-labeled protein A (2×10^5 cpm in 50 μl of PBS-0.1% BSA) was added to each well. The plates were incubated for 3 hours at room temperature, after which they were washed and the wells were cut out and counted for bound radioactivity. Pre-immune serum samples, obtained from the mice prior to any experimental treatments, were used as controls to correct for non-specific binding.

[5] = test system: experimental autoimmune myasthenia gravis (EAMG); assay: Electrophysiological EAMG: EMG during repetitive nerve stimulation after immunization with Torpedo AChR; type: in vivo, C57/BL6 mice; conditions: for proportion of mice showing a decremental response greater than 10%: 5 μg i.p. at 11, 7 and 3 days before immunization with Torpedo AChR, EMG on days 38-39
Procedure: Six weeks old C57/BL6 mice were purchased from Charles River Breeding Laboratories (Wilmington, Mass.). Preimmune sera were obtained from the mice for use as controls in subsequent antibody binding assays. […] Then, on day 0, the mice were immunized subcutaneously in one hind footpad and intramuscularly in the same side shoulder with 20 μg of Torpedo AChR in 100 μl emulsion containing equal volumes of complete Freund's adjuvant and PBS. Thirty days later, the mice were immunized with a similar dose of the receptor in the opposite footpad and shoulder. On the 37th day, test bleeds were obtained from the mice for determination of the antibody titers. Electrophysiological studies were performed on the 38th and 39th days. Finally, the mice were sacrificed on the 40th day and lymph node cells were obtained for Electrophysiological Studies To document the electrophysiological evidence of EAMG, amplitudes of serial muscle action potentials were measured by electromyography (EMG) during the repetitive stimulation of the nerve in immunized mice, using the Mystro EMG system (TECA Corporation). A pair of wire electrodes were surgically implanted, encircling the sciatic nerve, two days before EMG. The nerve was stimulated through the implanted electrodes by 3 Hz trains of supramaximal electric current with a duration of 200 microseconds. The corresponding muscle action potentials were recorded with an electrode subcutaneously inserted over the gastrocnemius muscle. A reference electrode was placed at the ankle. Ether inhalation was used during the surgical and recording procedures. […] Students' t-test was used to analyze the differences of amplitude changes between the two groups. A typical myasthenic response of a greater than 10% decrement was considered to constitute an electrophysiological evidence of EAMG. The frequency of electrophysiological EAMG was calculated in each group and analyzed by chi-square test.

[6] = test system: lymph node cells (LNC); assay: T cell proliferation assay of lymph node cells from pretreated, AChR-primed mice; type: in vivo, C57/BL6 mice; conditions: LNC 5×10^5 cells/well from pretreated mice after AChR immunization
Procedure: as §1, with “PBS.” for “PBS. Thirty days later, the mice were immunized with a similar dose of the receptor in the opposite footpad and shoulder. On the 37th day, test bleeds were obtained from the mice for determination of the antibody titers. Electrophysiological studies were performed on the 38th and 39th days.”
Lymph node cells (LNC) were harvested from the AChR-primed mice of each group ten or eleven days after the last AChR immunization. […] The number of viable cells was determined by vital staining with fluorescein diacetage (Rotman and Papermasters, 1966). […] After incubation for 3 days at 37° C. in a humidified air/CO2 (19:1) atmosphere, the cultures were pulsed (18 hr) with 1 μCi/well [^3 H]-thymidine (Research Products International, Mount Prospect, Ill,) and then harvested on to glass microfiber filters (Whatman, Clinton, N.J.) for counting of radioactivity by liquid scintillation.

[7] = in vivo; cited from earlier work
[8] = anti-AChR antisera of pretreated mice

mPEG-(α125-148): monomethoxypolyethylene glycol (MW 5000) succinate coupled to the N-terminal α-NH2 of Torpedo californica AChR peptide α125-148 ({mPEG 5000 succinate}-KSYCEIIVTHFPFDQQNCTMKLGI; disulfide 4-18 (inferred); UniProt P02710 149-172, looked up, fragment)
antibody response against whole AChR (in words) [1]: no significant suppression; also recorded: not significantly different; also recorded: not altered | antibody response against peptide α45-60 (in words) [2]: no significant suppression; also recorded: not significantly different | antibody response against peptide α182-198 (in words) [3]: no significant suppression; also recorded: not significantly different | antibody response against peptide α125-148 (in words) [4, 8]: significantly decreased; also recorded: specific decrease | antibody binding to peptide α125-148, mean net cpm±standard deviation ([4]; anti-AChR antisera of pretreated mice, test bleed day 37): 1414 ±1801 cpm | binding to peptide α125-148 of antibodies in pooled antisera at serial dilutions (in words) [4]: considerably lower antibody binding; also recorded: consistently lower | proportion of mice showing a decremental response greater than 10% [5]: 20% | effect on development of electrophysiological EAMG (in words) ([5]; injection before immunization with whole Torpedo AChR): suppresses development of electrophysiological EAMG but the suppression was incomplete; also recorded: suppressed the development of electrophysiological EAMG; also recorded: suppressed the development of experimental autoimmune myasthenia gravis (EAMG) | T cell proliferative responses to peptide α125-148, AChR α-chain peptides or whole AChR (in words) [6]: did not show meaningful differences; also recorded: not detected; also recorded: no detectable changes

monomethoxypolyethylene glycol [mPEG]
harmful or toxic effects in humans (in words) [7]: does not seem to have any harmful or toxic effects

CC[N+](C)(C)c1cccc(O)c1 [edrophonium chloride, reference compound]
decremental amplitude after edrophonium chloride ([5]; EAMG-positive mouse with -33% decrement, 3 minutes after i.p. injection of 250 μg, 3 Hz stimulation): -13% | effect on the typical myasthenic decremental response (in words) ([5]; i.p. injection of 250 μg): reversible

CC[C@H](C)[C@H](NC(=O)CNC(=O)[C@H](CC(C)C)NC(=O)[C@H](CCCCN)NC(=O)[C@H](CCSC)NC(=O)[C@@H](NC(=O)[C@@H]1CSSC[C@H](NC(=O)[C@H](Cc2ccc(O)cc2)NC(=O)[C@H](CO)NC(=O)[C@@H](N)CCCCN)C(=O)N[C@@H](CCC(=O)O)C(=O)N[C@@H]([C@@H](C)CC)C(=O)N[C@@H]([C@@H](C)CC)C(=O)N[C@@H](C(C)C)C(=O)N[C@@H]([C@@H](C)O)C(=O)N[C@@H](Cc2c[nH]cn2)C(=O)N[C@@H](Cc2ccccc2)C(=O)N2CCC[C@H]2C(=O)N[C@@H](Cc2ccccc2)C(=O)N[C@@H](CC(=O)O)C(=O)N[C@@H](CCC(N)=O)C(=O)N[C@@H](CCC(N)=O)C(=O)N[C@@H](CC(N)=O)C(=O)N1)[C@@H](C)O)C(=O)O [free α125-148, reference compound] (H-KSYCEIIVTHFPFDQQNCTMKLGI-OH; disulfide 4-18)
antibody response against peptide α125-148 (in words) [4, 8]: no decrease | binding to peptide α125-148 of antibodies in pooled antisera at serial dilutions (in words) [4]: consistently greater than the other two controls | proportion of mice showing a decremental response greater than 10% [5]: 56%
